Results taken from publication PMC11739085, “A novel non-invasive murine model for rapidly testing drug activity via inhalation administration against Mycobacterium tuberculosis” (Frontiers in Pharmacology, 2025).
“And” between values parts separate entries of the source, which are not always exact repeats. Identical values can stand only once. “Also recorded” adds a separate entry of the source. Like-named read-outs stand apart in the source and are kept apart here.

Tests used:
[1] = test system: autoluminescent M. tuberculosis H37Rv (AlRv); type: in vivo, Mycobacterium tuberculosis
[2] = test system: autoluminescent M. tuberculosis H37Rv (AlRv); type: in vivo, Mycobacterium tuberculosis; remark: listed apart in the source
[3] = test system: M. tuberculosis; conditions: stated without method or reference; cited from earlier work
[4] = set-up: method as in Grewal et al., 2018; Grosset et al., 1992; Lyons et al., 2013; conditions: mice, oral administration; ref Grewal et al., 2018; Grosset et al., 1992; Lyons et al., 2013; cited from earlier work
[5] = Pharmacokinetics in lung via inhalation; conditions: for duration lung concentration above in vitro MIC against M. tuberculosis: lung tissue, inhalation
[6] = Pharmacokinetics in plasma via inhalation; conditions: for duration plasma concentration exceeded in vitro MIC against M. tuberculosis / peak concentration in plasma / AUC(0-t) / AUC(0-inf) / Tmax: mice
[7] = test system: AlRv; test: Published inhalation administration method using a syringe-like device in mice infected with AlRv; type: in vivo, Mycobacterium tuberculosis; conditions: unpublished data
Description: To date, four primary research reports, encompassing three inhalation administration models, have explored the detection of anti-TB drug efficacy through airway administration ([Garcia-Contreras et al., 2007]; [Garcia-Contreras et al., 2010]; [Gonzalez-Juarrero et al., 2012]; [Verma et al., 2013]). Among these studies, only two have employed murine models for their investigations. Supplementary Table S1 presents a comprehensive comparison of the advantages and disadvantages of each report relative to our study. Compared to these existing inhalation administration model, our innovative method achieves several improvements. Firstly, it is cost-effective and user-friendly, employing mice instead of larger animals. Secondly, it eliminates the need for anesthesia in mice during administration, simplifying the instrument operation. We also endeavored to utilize a published inhalation administration method using a syringe-like device in mice infected with AlRv. However, we encountered significant challenges in administering drugs daily due to the development of swollen throats in the mice ([Gonzalez-Juarrero et al., 2012]). […] Thirdly, the results obtained are relatively objective and repeatable, thereby minimizing the influence of human factor. Fourthly, the same treatment group, consisting of six mice, is administrated daily and simultaneously. […]

[8] = in vivo; conditions: mouse, inhaled or intranasal
[9] = in vivo; conditions: mouse, inhaled or intranasal; remark: listed apart in the source
[10] = […], RIF 2, INH 2, EMB 10 mg/mL, lungs D18
[11] = mice, RIF 2, INH 0.5, EMB 10 mg/mL
[12] = lung, mice, single inhalation, RIF 2, INH 0.5, EMB 10 mg/mL
[13] = mouse, lung, inhaled or intranasal, AUC0-t, mice, single inhalation 25 min, RIF 2, INH 0.5, EMB 10 mg/mL
[14] = mouse, lung, inhaled or intranasal, Tmax, mice, single inhalation 25 min, RIF 2, INH 0.5, EMB 10 mg/mL
[15] = mouse, lung, inhaled or intranasal, time of peak concentration in lung post-administration, mice, single inhalation, RIF 2, INH 0.5, EMB 10 mg/mL
[16] = inhalation, RIF 2, INH 0.5, EMB 10 mg/mL
[17] = single inhalation, RIF 2, INH 0.5, EMB 10 mg/mL
[18] = mouse, inhaled or intranasal, AUC0-t in plasma, inhalation, t = 4 h for INH and 24 h for RIF and EMB
[19] = mouse, inhaled or intranasal, AUC0-t, single inhalation 25 min, RIF 2, INH 0.5, EMB 10 mg/mL, t = 4 h for INH, 24 h for RIF and EMB
[20] = mouse, inhaled or intranasal, AUC0-∞ in plasma, inhalation
[21] = mouse, inhaled or intranasal, AUC0-∞, single inhalation 25 min, RIF 2, INH 0.5, EMB 10 mg/mL
[22] = mouse, inhaled or intranasal, time of peak concentration in plasma post-administration, single inhalation, RIF 2, INH 0.5, EMB 10 mg/mL, first sampling point 5 min

Row | Compound | lung CFUs compared with BT group [1, 10] | lung RLUs compared with BT group [1, 10] | log10CFUs/lung difference to solvent group ([2]; in vivo) | lowest inhaled concentration showing anti-M. tuberculosis activity in vivo ([2]; in vivo) [mg/mL] | lung CFUs compared with BT group ([2]; in vivo) | lung RLUs compared with BT group ([2]; in vivo) | lung RLUs compared with solvent group ([2]; in vivo) | in vitro minimum inhibitory concentration (MIC) [3] [µg/mL] | time of highest plasma concentration post-administration [4] [h] | duration lung concentration above in vitro MIC against M. tuberculosis [5, 11] | peak concentration in lung [5, 12] [µg/g] | AUC(0-t) [5, 13] [ng·h/mL] | Tmax [5, 14] [min] | Tmax [5, 15] [min] | duration plasma concentration exceeded in vitro MIC against M. tuberculosis [6, 16] | peak concentration in plasma [6, 17] | AUC(0-t) [6, 18] [ng·h/mL] | AUC(0-t) [6, 19] [ng·h/mL] | AUC(0-inf) [6, 20] [ng·h/mL] | AUC(0-inf) [6, 21] [ng·h/mL] | also measured
1 | CC[C@@H](CO)NCCN[C@@H](CC)CO [EMB, ethambutol] | almost similar | nearly identical | exceeding 1.5 log10CFUs/lung | 0.625 | nearly identical | equivalent | less significant differences | 2.00 | 1.33 | ~10 h | 10.94 ± 1.63 | 47300 | 4.8 | ≤ 5 | ~14 h | 28.64 ± 16.80 µg/mL and 28.64 ± 16.8 µg/mL | 103000 | 103000 | 103000 | 103000 | live RLUs compared with solvent group ([2]; in vivo): significantly lower; lung CFUs compared with solvent control ([2]; in vivo): significantly reduced; half-life ([5]; mouse, lung, inhaled or intranasal): 274 min; AUC(0-inf) ([5]; mouse, lung, inhaled or intranasal, AUC0-∞, mice, single inhalation 25 min, RIF 2, INH 0.5, EMB 10 mg/mL): 48700 ng·h/mL; half-life ([6]; mouse, inhaled or intranasal): 170 min; Tmax ([6]; mouse, inhaled or intranasal, Tmax, single inhalation 25 min, RIF 2, INH 0.5, EMB 10 mg/mL): 4.8 min; Tmax [6, 22]: ≤ 5 min
2 | NNC(=O)c1ccncc1 [INH, isoniazid] | lower | slightly lower | exceeding 1.5 log10CFUs/lung | 0.5 | lower | comparable | similar | 0.13 | 0.25 | ~0.5 h | 2.52 ± 0.81 | 337 | 15 | ≤ 15 | ~3 h | 2.66 ± 0.29 µg/mL | 1570 | 1570 | 1790 | 1790 | colonies on plates of lung suspension ([2]; […], only a fraction of the lung suspension plated): no colonies were observed; log10RLUs/lung difference to solvent group ([2]; in vivo): exceeding 1.5 log10RLUs/lung; RLUs compared with untreated control and the same mice the day before administration [7]: reduced RLUs; Tmax [8]: 4.8 min; concentration in the lungs 30 min post-administration ([5]; lung, mice, inhalation 0.5 mg/mL, 30 min post-administration): nearly undetectable; also recorded: near-zero; AUC(0-t) ([5]; mouse, lung, inhaled or intranasal, 0.5 mg/mL, AUC0-t in the lungs, mice, inhalation 0.5 mg/mL): 340 ng·h/mL; Tmax [6, 22]: ≤ 5 min
3 | CO[C@H]1/C=C/O[C@@]2(C)Oc3c(C)c(O)c4c(O)c(c(/C=N/N5CCN(C)CC5)c(O)c4c3C2=O)NC(=O)/C(C)=C\C=C\[C@H](C)[C@H](O)[C@@H](C)[C@@H](O)[C@@H](C)[C@H](OC(C)=O)[C@@H]1C [RIF, rifampicin] |  |  | exceeding 1.5 log10CFUs/lung | 0.5 |  |  | comparable | 0.06 |  | approximately 24 h |  |  |  |  | approximately 24 h |  |  |  |  |  | lung CFUs compared with BT group ([1]; in vivo): higher; bactericidal activity by lung suspension RLU and CFU ([2]; in vivo): failed to demonstrate bactericidal activity; log10RLUs/lung difference to solvent group ([2]; in vivo): exceeding 1.5 log10RLUs/lung; lung CFUs compared with solvent group ([2]; in vivo): slightly significantly lower; also recorded: approximately comparable; AUC(0-t) ([8]; AUC0-t in plasma): 19000 ng·h/mL; AUC(0-inf) ([8]; AUC0-∞ in plasma): 21000 ng·h/mL; Tmax ([8]; Tmax): 4.8 min; Tmax ([8]; time of peak concentration in plasma post-administration): 5 min; Tmax ([9]; Tmax): 4.8 min; Tmax ([9]; time of peak concentration in lung post-administration): 5 min
